According to ChEMBL document CHEMBL1130546, “Oligopresentation of protease inhibitors with -cyclodextrin as template” (Bioorg Med Chem Lett, 1997):
Where a SMILES comes first, the peptide text is derived from it. [ ]: non-standard residue; d: D form. Nle = CCCC[C@H](N)C(=O)O

What was measured:
Cathepsin B = Cathepsin B (Homo sapiens, UniProt P07858); assay: Equilibrium dissociation constant for the inhibition of human cathepsin B was determined
[1] = target: T1, Calpain-1 catalytic subunit (Homo sapiens, UniProt P07384); assay: Equilibrium dissociation constant for the inhibition of human Mu-calpain was determined
T1 sequence (P07384 whole entry): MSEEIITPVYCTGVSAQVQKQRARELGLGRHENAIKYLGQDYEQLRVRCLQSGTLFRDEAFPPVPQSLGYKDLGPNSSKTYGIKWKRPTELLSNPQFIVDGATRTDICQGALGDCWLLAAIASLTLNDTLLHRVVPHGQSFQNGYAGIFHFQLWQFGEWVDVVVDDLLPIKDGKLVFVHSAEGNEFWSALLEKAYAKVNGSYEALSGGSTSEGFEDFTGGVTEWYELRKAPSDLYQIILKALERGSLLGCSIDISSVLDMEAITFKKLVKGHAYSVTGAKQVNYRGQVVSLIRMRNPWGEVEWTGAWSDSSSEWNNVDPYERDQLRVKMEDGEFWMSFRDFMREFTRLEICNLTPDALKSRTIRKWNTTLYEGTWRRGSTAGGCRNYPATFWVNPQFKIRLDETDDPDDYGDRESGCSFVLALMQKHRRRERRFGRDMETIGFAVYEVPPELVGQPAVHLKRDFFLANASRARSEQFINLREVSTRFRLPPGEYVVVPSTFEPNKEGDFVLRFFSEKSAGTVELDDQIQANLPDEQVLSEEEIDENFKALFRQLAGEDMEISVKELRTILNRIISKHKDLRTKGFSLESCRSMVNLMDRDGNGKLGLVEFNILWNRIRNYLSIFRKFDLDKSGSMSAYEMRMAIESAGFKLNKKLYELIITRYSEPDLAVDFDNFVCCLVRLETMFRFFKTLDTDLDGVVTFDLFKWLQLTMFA

Ki (Cathepsin B): 1 nM
Ki [1]: 3.4 nM
SMILES: CCCC[C@H](NC(=O)[C@H](CC(C)C)NC(=O)[C@H](CC(C)C)NC(C)=O)C(=O)O (Ac-Leu-Leu-[Nle]-OH)
